Values quoted from earlier work, collected in publication PMC9516332 (Frontiers in Oncology, 2022).
Read-outs that look alike come from different tables or passages of the source.

Tests used:
Settings in all cases: cited from earlier work
[1] = target: panel of 255 wild-type kinases (Homo sapiens, UniProt P29317)
[2] = target: T1, panel of 255 wild-type kinases (Homo sapiens, UniProt P29323)
T1 sequence (P29323 19-1055): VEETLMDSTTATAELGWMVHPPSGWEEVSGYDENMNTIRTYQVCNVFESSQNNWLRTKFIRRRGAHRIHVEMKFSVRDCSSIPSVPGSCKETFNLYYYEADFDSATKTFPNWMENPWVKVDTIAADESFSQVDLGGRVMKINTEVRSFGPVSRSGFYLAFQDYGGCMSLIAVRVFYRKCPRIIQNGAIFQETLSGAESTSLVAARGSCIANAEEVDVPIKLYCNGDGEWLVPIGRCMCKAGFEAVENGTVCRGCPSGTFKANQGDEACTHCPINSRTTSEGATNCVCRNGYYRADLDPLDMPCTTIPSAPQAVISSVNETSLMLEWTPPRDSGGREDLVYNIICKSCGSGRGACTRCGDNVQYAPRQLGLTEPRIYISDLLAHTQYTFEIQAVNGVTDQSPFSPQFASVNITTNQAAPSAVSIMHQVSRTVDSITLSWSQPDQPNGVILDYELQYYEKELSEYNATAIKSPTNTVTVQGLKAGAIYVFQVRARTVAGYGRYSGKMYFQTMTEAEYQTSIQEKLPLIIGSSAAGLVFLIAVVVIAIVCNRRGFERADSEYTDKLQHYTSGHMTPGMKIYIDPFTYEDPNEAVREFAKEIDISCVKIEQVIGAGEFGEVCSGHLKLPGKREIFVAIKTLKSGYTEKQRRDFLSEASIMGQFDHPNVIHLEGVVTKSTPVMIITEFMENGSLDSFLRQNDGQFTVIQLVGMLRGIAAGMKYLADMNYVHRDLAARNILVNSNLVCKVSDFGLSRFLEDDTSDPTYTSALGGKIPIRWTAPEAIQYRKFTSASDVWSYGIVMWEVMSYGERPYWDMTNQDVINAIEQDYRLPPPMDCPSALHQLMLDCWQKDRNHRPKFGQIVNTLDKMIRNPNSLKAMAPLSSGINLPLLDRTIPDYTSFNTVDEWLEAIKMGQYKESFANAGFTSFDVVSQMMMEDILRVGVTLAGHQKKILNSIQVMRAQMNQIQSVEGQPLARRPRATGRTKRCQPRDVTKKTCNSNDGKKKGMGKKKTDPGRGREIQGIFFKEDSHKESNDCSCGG

[3] = target: T2, panel of 255 wild-type kinases (Homo sapiens, UniProt Q13470)
T2 sequence (Q13470 1-666): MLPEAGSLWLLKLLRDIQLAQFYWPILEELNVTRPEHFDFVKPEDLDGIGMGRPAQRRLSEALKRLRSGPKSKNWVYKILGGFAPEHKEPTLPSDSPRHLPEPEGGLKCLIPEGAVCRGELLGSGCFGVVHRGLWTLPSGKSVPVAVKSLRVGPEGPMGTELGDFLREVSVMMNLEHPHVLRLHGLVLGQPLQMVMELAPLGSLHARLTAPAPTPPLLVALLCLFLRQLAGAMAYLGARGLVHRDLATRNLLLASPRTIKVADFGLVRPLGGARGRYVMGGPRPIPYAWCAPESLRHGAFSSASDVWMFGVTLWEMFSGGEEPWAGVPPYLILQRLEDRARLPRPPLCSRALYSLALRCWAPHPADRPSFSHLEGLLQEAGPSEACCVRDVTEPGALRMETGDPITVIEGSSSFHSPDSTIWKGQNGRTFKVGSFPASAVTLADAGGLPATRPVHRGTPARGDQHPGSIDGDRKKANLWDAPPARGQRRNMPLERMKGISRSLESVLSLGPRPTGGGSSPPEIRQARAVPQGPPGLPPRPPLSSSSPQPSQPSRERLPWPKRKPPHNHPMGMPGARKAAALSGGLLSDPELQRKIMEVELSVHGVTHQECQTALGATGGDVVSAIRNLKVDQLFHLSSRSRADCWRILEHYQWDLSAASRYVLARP

[4] = target: panel of 255 wild-type kinases (Homo sapiens, UniProt Q9P289)
[5] = kinase EPHA2, 1 µmol/L single concentration, ref DOI: 10.1158/1535-7163.MCT-18-0877
[6] = kinase EPHB2, 1 µmol/L single concentration, ref DOI: 10.1158/1535-7163.MCT-18-0877
[7] = kinase TNK1, 1 µmol/L single concentration, ref DOI: 10.1158/1535-7163.MCT-18-0877
[8] = MST4, 1 µmol/L single concentration, ref DOI: 10.1158/1535-7163.MCT-18-0877
[9] = kinase EPHA2, 1 µmol/L single concentration, ref DOI: 10.1371/journal.pone.0092146
[10] = kinase EPHB2, 1 µmol/L single concentration, ref DOI: 10.1371/journal.pone.0092146
[11] = kinase TNK1, 1 µmol/L single concentration, ref DOI: 10.1371/journal.pone.0092146
[12] = MST4, 1 µmol/L single concentration, ref DOI: 10.1371/journal.pone.0092146

SMILES	%-inhibition at 1 µmol/L, EPHA2 [1, 5] [%]	%-inhibition at 1 µmol/L, EPHB2 [2, 6] [%]	%-inhibition at 1 µmol/L, TNK1 [3, 7] [%]	%-inhibition, MST4 [4, 8] [%]	%-inhibition at 1 µmol/L, EPHA2 [1, 9] [%]	%-inhibition at 1 µmol/L, EPHB2 [2, 10] [%]	%-inhibition at 1 µmol/L, TNK1 [3, 11] [%]	%-inhibition, MST4 [4, 12] [%]	other results
CC#CC(=O)N1CCC[C@H]1c1nc(-c2ccc(C(=O)Nc3ccccn3)cc2)c2c(N)nccn12 [acalabrutinib]	-3.6	-0.111	-1.8	-6.42					
CCc1cc2c(cc1N1CCC(N3CCOCC3)CC1)C(C)(C)c1[nH]c3cc(C#N)ccc3c1C2=O [alectinib]	1.88	27	11	-7					
COc1cc(N2CCC(N3CCN(C)CC3)CC2)ccc1Nc1ncc(Cl)c(Nc2ccccc2P(C)(C)=O)n1 [brigatinib]									%-inhibition at 1 µmol/L, EPHA2 [1]: -2.16%; %-inhibition at 1 µmol/L, EPHB2 [2]: 10%; %-inhibition at 1 µmol/L, TNK1 [3]: 101%; %-inhibition, MST4 [4]: -1.25%
Cc1cc(Nc2ncc(Cl)c(Nc3ccccc3S(=O)(=O)C(C)C)n2)c(OC(C)C)cc1C1CCNCC1 [ceritinib]	5.69	15	101	4					
O=C(c1ccc(F)c(F)c1Nc1ccc(I)cc1F)N1CC(O)([C@@H]2CCCCN2)C1 [cobimetinib]	2.79	1.53	4.29	-0.477					
C[C@@H](Oc1cc(-c2cnn(C3CCNCC3)c2)cnc1N)c1c(Cl)ccc(F)c1Cl [crizotinib]					86	57	41	0.54	
CC(C)(C)c1nc(-c2cccc(NS(=O)(=O)c3c(F)cccc3F)c2F)c(-c2ccnc(N)n2)s1 [dabrafenib]					7	-3.38	100	-7	
C=CC(=O)N1CCC[C@@H](n2nc(-c3ccc(Oc4ccccc4)cc3)c3c(N)ncnc32)C1 [ibrutinib]	7	28	6	1.46					
CO[C@@H]1[C@H](N(C)C(=O)c2ccccc2)C[C@H]2O[C@]1(C)n1c3ccccc3c3c4c(c5c6ccccc6n2c5c31)C(=O)NC4 [midostaurin]	3.36	4.5	101	52					
C=CC(=O)Nc1cc(Nc2nccc(-c3cn(C)c4ccccc34)n2)c(OC)cc1N(C)CCN(C)C [osimertinib]	3.35	2.8	100	1.61					
CC(=O)Nc1cccc(-n2c(=O)n(C3CC3)c(=O)c3c(Nc4ccc(I)cc4F)n(C)c(=O)c(C)c32)c1 [trametinib]					-8.53	-8	-2.58	-2.23	
CCCS(=O)(=O)Nc1ccc(F)c(C(=O)c2c[nH]c3ncc(-c4ccc(Cl)cc4)cc23)c1F [vemurafenib]					0.715	-2.11	13	-4.62	
